Test results reported in the supplement of paper PMC10307832.

Experiments:
Assay in all cases: relative viability (nuclei count vs DMSO), 5 days (fraction); higher = more cells survive
A549 = test system: A549
Summary of the method: (§1)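 One day after seeding in 1536-well plates, lung cancer cell lines were dosed by pin tool. Dosing was either single-drug or a fixed anchor-drug dose plus five library-drug doses (not always all listed) in √10 steps. After 5 days, nuclei were stained in one fix-and-stain step and counted on 4× images, and relative viability is the nuclei count of treated wells over that of vehicle wells, given as the median of duplicate plates.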

ABC-1 = test system: ABC-1
Summary of the method: as §1

Calu-6 = test system: Calu-6
Summary of the method: as §1

EBC-1 = test system: EBC-1
Summary of the method: as §1

EKVX = test system: EKVX
Summary of the method: as §1

HCC-44 = test system: HCC-44
Summary of the method: as §1

IA-LM = test system: IA-LM
Summary of the method: as §1

NCI-H1299 = test system: NCI-H1299
Summary of the method: as §1

NCI-H1703 = test system: NCI-H1703
Summary of the method: as §1

NCI-H1993 = test system: NCI-H1993
Summary of the method: as §1

NCI-H2085 = test system: NCI-H2085
Summary of the method: as §1

NCI-H2126 = test system: NCI-H2126
Summary of the method: as §1

RERF-LC-KJ = test system: RERF-LC-KJ
Summary of the method: as §1

Structure (SMILES): CC(=O)O[C@@]12CO[C@@H]1C[C@H](O)[C@@]1(C)C(=O)[C@H](O)C3=C(C)[C@@H](OC(=O)[C@H](O)[C@@H](NC(=O)OC(C)(C)C)c4ccccc4)C[C@@](O)([C@@H](OC(=O)c4ccccc4)[C@H]21)C3(C)C [Docetaxel] + Cc1nc(NC(=O)N2CCC[C@H]2C(N)=O)sc1-c1ccnc(C(C)(C)C(F)(F)F)c1 [Alpelisib] (partner 2 µM)
- relative viability (A549; first compound 0.0002 µM): 0.752
- relative viability (A549; first compound 0.000632 µM): 0.668
- relative viability (A549; first compound 0.002 µM): 0.0866
- relative viability (A549; first compound 0.006325 µM): 0.0749
- relative viability (A549; first compound 0.02 µM): 0.034
- relative viability (ABC-1; first compound 0.0002 µM): 0.826
- relative viability (ABC-1; first compound 0.000632 µM): 1.07
- relative viability (ABC-1; first compound 0.002 µM): 0.493
- relative viability (ABC-1; first compound 0.006325 µM): 0.464
- relative viability (ABC-1; first compound 0.02 µM): 0.337
- relative viability (Calu-6; first compound 0.0002 µM): 1.03
- relative viability (Calu-6; first compound 0.000632 µM): 0.99
- relative viability (Calu-6; first compound 0.002 µM): 0.432
- relative viability (Calu-6; first compound 0.006325 µM): 0.147
- relative viability (Calu-6; first compound 0.02 µM): 0.115
- relative viability (EBC-1; first compound 0.0002 µM): 0.797
- relative viability (EBC-1; first compound 0.000632 µM): 0.576
- relative viability (EBC-1; first compound 0.002 µM): 0.275
- relative viability (EBC-1; first compound 0.006325 µM): 0.267
- relative viability (EBC-1; first compound 0.02 µM): 0.174
- relative viability (EKVX; first compound 0.0002 µM): 0.884
- relative viability (EKVX; first compound 0.000632 µM): 0.853
- relative viability (EKVX; first compound 0.002 µM): 0.435
- relative viability (EKVX; first compound 0.006325 µM): 0.25
- relative viability (EKVX; first compound 0.02 µM): 0.146
- relative viability (HCC-44; first compound 0.0002 µM): 0.758
- relative viability (HCC-44; first compound 0.000632 µM): 0.711
- relative viability (HCC-44; first compound 0.002 µM): 0.609
- relative viability (HCC-44; first compound 0.006325 µM): 0.149
- relative viability (HCC-44; first compound 0.02 µM): 0.0751
- relative viability (IA-LM; first compound 0.0002 µM): 0.595
- relative viability (IA-LM; first compound 0.000632 µM): 0.232
- relative viability (IA-LM; first compound 0.002 µM): 0.116
- relative viability (IA-LM; first compound 0.006325 µM): 0.0821
- relative viability (IA-LM; first compound 0.02 µM): 0.0716
- relative viability (NCI-H1299; first compound 0.0002 µM): 1.05
- relative viability (NCI-H1299; first compound 0.000632 µM): 1.06
- relative viability (NCI-H1299; first compound 0.002 µM): 1.01
- relative viability (NCI-H1299; first compound 0.006325 µM): 0.605
- relative viability (NCI-H1299; first compound 0.02 µM): 0.431
- relative viability (NCI-H1703; first compound 0.0002 µM): 0.406
- relative viability (NCI-H1703; first compound 0.000632 µM): 0.442
- relative viability (NCI-H1703; first compound 0.006325 µM): 0.125
- relative viability (NCI-H1703; first compound 0.02 µM): 0.109
- relative viability (NCI-H1993; first compound 0.0002 µM): 0.727
- relative viability (NCI-H1993; first compound 0.000632 µM): 0.62
- relative viability (NCI-H1993; first compound 0.002 µM): 0.741
- relative viability (NCI-H1993; first compound 0.006325 µM): 0.525
- relative viability (NCI-H1993; first compound 0.02 µM): 0.454
- relative viability (NCI-H2085; first compound 0.0002 µM): 0.93
- relative viability (NCI-H2085; first compound 0.000632 µM): 0.905
- relative viability (NCI-H2085; first compound 0.002 µM): 0.697
- relative viability (NCI-H2085; first compound 0.006325 µM): 0.609
- relative viability (NCI-H2085; first compound 0.02 µM): 0.378
- relative viability (NCI-H2126; first compound 0.0002 µM): 0.781
- relative viability (NCI-H2126; first compound 0.000632 µM): 0.753
- relative viability (NCI-H2126; first compound 0.002 µM): 0.541
- relative viability (NCI-H2126; first compound 0.006325 µM): 0.321
- relative viability (NCI-H2126; first compound 0.02 µM): 0.231
- relative viability (RERF-LC-KJ; first compound 0.0002 µM): 0.801
- relative viability (RERF-LC-KJ; first compound 0.000632 µM): 0.712
- relative viability (RERF-LC-KJ; first compound 0.002 µM): 0.38
- relative viability (RERF-LC-KJ; first compound 0.006325 µM): 0.235
- relative viability (RERF-LC-KJ; first compound 0.02 µM): 0.172
